Laboratory results from ChEMBL document CHEMBL5584340, “Discovery of Novel Antiosteoporosis Leads with Bone Resorption Inhibition and Anabolic Promotion through a Chemotype-Assembly Approach” (J Med Chem, 2024).
The source made the active and inactive calls. The rule behind the calls is not given here.

What was measured:
BMDM [1] = assay: Anti-osteoclastogenic activity in M-CSF/RANKL-induced C57BL/6 mouse BMDM cells assessed as inhibition of M-CSF/RANKL-stimulated osteoclast differentiation measured after 5 days by TRAP staining based microscopic analysis; assay type: functional, cell-based; conditions: C57BL/6, BMDM, 120 h
[2] = Cytotoxicity against mouse RAW264.7 cells incubated for 48 hrs by CCK-8 assay; assay type: toxicity, cell-based
BMDM [3] = assay: Anti-osteoclastogenic activity in M-CSF/RANKL-induced C57BL/6 mouse BMDM cells assessed as downregulation of ATP6VOD2 mRNA expression at 1 uM incubated for 7 days by RT-qPCR analysis; assay type: functional, cell-based; conditions: time 7.0 day
BMDM [4] = assay: Anti-osteoclastogenic activity in M-CSF/RANKL-induced C57BL/6 mouse BMDM cells assessed as downregulation of C-Fos mRNA expression at 1 uM incubated for 7 days by RT-qPCR analysis; assay type: functional, cell-based; conditions: time 7.0 day
BMDM [5] = assay: Anti-osteoclastogenic activity in M-CSF/RANKL-induced C57BL/6 mouse BMDM cells assessed as downregulation of CTSK mRNA expression at 1 uM incubated for 7 days by RT-qPCR analysis; assay type: functional, cell-based; conditions: time 7.0 day
BMDM [6] = assay: Anti-osteoclastogenic activity in M-CSF/RANKL-induced C57BL/6 mouse BMDM cells assessed as downregulation of TRACP mRNA expression at 1 uM incubated for 7 days by RT-qPCR analysis; assay type: functional, cell-based; conditions: time 7.0 day
C3H 10T1/2 [7] = assay: Induction of osteoblast differentiation in mouse C3H 10T1/2 cells at 1 uM incubated for 7 days by ALP staining based analysis; assay type: functional, cell-based; conditions: time 7.0 day
C3H 10T1/2 [8] = assay: Induction of osteoblast mineralization in mouse C3H 10T1/2 cells assessed as increase in calcium deposition at 1 uM measured after 14 days by Alizarin Red S staining based analysis; assay type: functional, cell-based; conditions: time 14.0 day
C3H 10T1/2 [9] = assay: Induction of osteoblastogenesis in mouse C3H 10T1/2 cells assessed as upregulation of ALP gene expression at 1 uM incubated for 7 days by RT-qPCR analysis; assay type: functional, cell-based; conditions: time 7.0 day
C3H 10T1/2 [10] = assay: Induction of osteoblastogenesis in mouse C3H 10T1/2 cells assessed as upregulation of SP7 gene expression at 1 uM incubated for 7 days by RT-qPCR analysis; assay type: functional, cell-based; conditions: time 7.0 day
C3H 10T1/2 [11] = assay: Induction of osteoblastogenesis in mouse C3H 10T1/2 cells assessed as upregulation of SPARC gene expression at 1 uM incubated for 7 days by RT-qPCR analysis; assay type: functional, cell-based; conditions: time 7.0 day
C3H 10T1/2 [12] = assay: Induction of osteoclastogenesis in mouse C3H 10T1/2 cells assessed as upregulation of RANKL gene expression at 1 uM incubated for 7 days by RT-qPCR analysis; assay type: functional, cell-based; conditions: time 7.0 day
[13] = Toxicity in OVX-induced osteoporosis C57BL/6 mouse model assessed as change in water intake at 30 mg/kg,po administrated for 1 week; assay type: organism-based; conditions: in vivo, 168 h, time 1 weeks
[14] = Toxicity in OVX-induced osteoporosis C57BL/6 mouse model assessed as change in body weight at 30 mg/kg,po administrated for 1 week; assay type: organism-based; conditions: in vivo, 168 h, time 1 weeks
[15] = Toxicity in OVX-induced osteoporosis C57BL/6 mouse model assessed as change in hair color at 30 mg/kg,po administrated for 1 week; assay type: organism-based; conditions: in vivo, 168 h, time 1 weeks
[16] = Toxicity in OVX-induced osteoporosis C57BL/6 mouse model assessed as change in mental state at 30 mg/kg,po administrated for 1 week; assay type: organism-based; conditions: in vivo, 168 h, time 1 weeks
[17] = Toxicity in OVX-induced osteoporosis C57BL/6 mouse model assessed as change in stool state at 30 mg/kg,po administrated for 1 week; assay type: organism-based; conditions: in vivo, 168 h, time 1 weeks
[18] = Toxicity in OVX-induced osteoporosis C57BL/6 mouse model assessed as change in urine color at 30 mg/kg,po administrated for 1 week; assay type: organism-based; conditions: in vivo, 168 h, time 1 weeks
Mus musculus [19] = assay: Anti-osteoporosis activity in OVX-induced osteoporosis C57BL/6 mouse model assessed as prevention of bone loss in femur at 10 mg/kg,po administrated for 4 weeks by Micro-CT analysis; assay type: functional, organism-based
Mus musculus [20] = assay: Anti-osteoporosis activity in OVX-induced osteoporosis C57BL/6 mouse model assessed as increase in BV/TV in femur at 10 mg/kg,po administrated for 4 weeks by Micro-CT analysis; assay type: functional, organism-based
Mus musculus [21] = assay: Anti-osteoporosis activity in OVX-induced osteoporosis C57BL/6 mouse model assessed as increase in […] in femur at 10 mg/kg,po administrated for 4 weeks by Micro-CT analysis; assay type: functional, organism-based
Mus musculus [22] = assay: Anti-osteoporosis activity in OVX-induced osteoporosis C57BL/6 mouse model assessed as increase in trabecular number in femur at 10 mg/kg,po administrated for 4 weeks by Micro-CT analysis; assay type: functional, organism-based
Mus musculus [23] = assay: Anti-osteoporosis activity in OVX-induced osteoporosis C57BL/6 mouse model assessed as increase in trabecular thickness in femur at 10 mg/kg,po administrated for 4 weeks by Micro-CT analysis; assay type: functional, organism-based
Mus musculus [24] = assay: Anti-osteoporosis activity in OVX-induced osteoporosis C57BL/6 mouse model assessed as decrease in serum CTX-I level at 10 mg/kg,po administrated for 4 weeks; assay type: functional, organism-based
Mus musculus [25] = assay: Anti-osteoporosis activity in OVX-induced osteoporosis C57BL/6 mouse model assessed as increase in serum osteocalcin level at 10 mg/kg,po administrated for 4 weeks; assay type: functional, organism-based
Mus musculus [26] = assay: Anti-osteoporosis activity in OVX-induced osteoporosis C57BL/6 mouse model assessed as increase in serum PINP level at 10 mg/kg,po administrated for 4 weeks; assay type: functional, organism-based
[27] = Toxicity in OVX-induced osteoporosis C57BL/6 mouse model assessed as change in serum ALT level at 10 mg/kg,po administrated for 4 week; assay type: organism-based; conditions: in vivo, 672 h, time 4 weeks
[28] = Toxicity in OVX-induced osteoporosis C57BL/6 mouse model assessed as change in serum AST level at 10 mg/kg,po administrated for 4 week; assay type: organism-based; conditions: in vivo, 672 h, time 4 weeks
[29] = Toxicity in OVX-induced osteoporosis C57BL/6 mouse model assessed as change in serum creatinine level at 10 mg/kg,po administrated for 4 week; assay type: organism-based; conditions: in vivo, 672 h, time 4 weeks
[30] = Toxicity in OVX-induced osteoporosis C57BL/6 mouse model assessed as change in serum urea nitrogen level at 10 mg/kg,po administrated for 4 week; assay type: organism-based; conditions: in vivo, 672 h, time 4 weeks
[31] = Toxicity in OVX-induced osteoporosis C57BL/6 mouse model assessed as change in serum total cholesterol level at 10 mg/kg,po administrated for 4 week; assay type: organism-based; conditions: in vivo, 672 h, time 4 weeks
[32] = Toxicity in OVX-induced osteoporosis C57BL/6 mouse model assessed as change in serum triglyceride level at 10 mg/kg,po administrated for 4 week; assay type: organism-based; conditions: in vivo, 672 h, time 4 weeks
BMDM [33] = assay: Anti-osteoclastogenic activity in M-CSF/RANKL-induced C57BL/6 mouse BMDM cells assessed as fold change in inhibition of M-CSF/RANKL-stimulated osteoclast differentiation at 10 uM measured after 5 days by TRAP staining based microscopic analysis relative to control; assay type: functional; conditions: time 5 day

## O=C(O)c1cc2ccccc2cc1C(=O)Nc1nc2ccccc2s1
BMDM [1]
  IC50: 0.4 µM
[2]
  CC50 at 48 h: 65.5 µM
BMDM [3]
  Activity: Active
BMDM [4]
  Activity: Active
BMDM [5]
  Activity: Active
BMDM [6]
  Activity: Active
C3H 10T1/2 [7]
  Activity: Active
C3H 10T1/2 [8]
  Activity: Active
C3H 10T1/2 [9]
  Activity: Active
C3H 10T1/2 [10]
  Activity: Active
C3H 10T1/2 [11]
  Activity: Active
C3H 10T1/2 [12]
  Activity: inactive
[13]
  Activity: Non-Toxic
[14]
  Activity: Non-Toxic
[15]
  Activity: Non-Toxic
[16]
  Activity: Non-Toxic
[17]
  Activity: Non-Toxic
[18]
  Activity: Non-Toxic
Mus musculus [19]
  Activity: Active
Mus musculus [20]
  Activity: Active
Mus musculus [21]
  Activity: Active
Mus musculus [22]
  Activity: Active
Mus musculus [23]
  Activity: Active
Mus musculus [24]
  Activity: Active
Mus musculus [25]
  Activity: Active
Mus musculus [26]
  Activity: Active
[27]
  Activity: Non-Toxic
[28]
  Activity: Non-Toxic
[29]
  Activity: Non-Toxic
[30]
  Activity: Non-Toxic
[31]
  Activity: Non-Toxic
[32]
  Activity: Non-Toxic
BMDM [33]
  fold change (FC): 21.25
